Source: PMC11513842, “Development of an orally bioavailable CDK12/13 degrader and induction of synthetic lethality with AKT pathway inhibition” (Cell Reports Medicine, 2024)
Read-outs that look alike come from different tables or passages of the source.

Columns and labels:
VCaP cells = experiment: Cell viability assay (CellTiter-Glo, 5 days); assay type: cell-based, human
Method: Cells were seeded in 96-well plates and incubated at 37°C with 5% CO2 overnight. A series of compound dilutions were added into the cells. After 5 days incubation, cell proliferation was tested using the CellTiter-Glo assay (Promega) according to the manufacturer’s protocol. Luminescence was measured using the Infinite M1000 Pro plate reader (Tecan). Data analysis was conducted using GraphPad Prism software.

CDK12 and CDK13 = conditions: VCaP cells
Method: After treatment of varying conditions, cell lysates were prepared using RIPA buffer (ThermoFisher Scientific) supplemented with cOmplete protease inhibitor cocktail tablets (Sigma-Aldrich). The Pierce BCA Protein Assay Kit ([…]) was used to determine the protein concentrations. Proteins with an equal amount from each sample were loaded on NuPAGE 3–8% Tris-Acetate or 4–12% Bis-Tris protein gels (ThermoFisher Scientific) and subsequently transferred to membranes, which were blocked using 5% nonfat milk. Following blocking at room temperature for 1 h, the membrane was further incubated with varying primary antibodies at 4°C overnight. HRP-conjugated secondary antibodies were used for detection, and membrane imaging was conducted using an Odyssey Fc Imager (LI-COR Biosciences).

[1] = VCaP cell viability, linker optimization, Figure S4B, read-out: VCaP IC50

Compound	IC50 (VCaP cells; [1])	CDK12/13 degradation (immunoblot) (CDK12 and CDK13)	IC50 (VCaP cells; VCaP cells, 5 days, Figure S1E, read-out: IC50)
O=C1CCC(N2C(=O)c3ccc(N4CCC(N5CCN(c6ccc(N(C(=O)NCc7ccccc7)C7CCC(Nc8ncc9ccccc9n8)CC7)cc6)CC5)C4)cc3C2=O)C(=O)N1 (stereo not drawn) [YJ1096]	97.8 nM	significantly decreased CDK12/13 degradation and cell viability	–
O=C1CCC(N2C(=O)c3ccc(C=CC(=O)N4CCN(c5ccc(N(C(=O)NCc6ccccc6)C6CCC(Nc7ncc8ccccc8n7)CC6)cc5)CC4)cc3C2=O)C(=O)N1 (stereo not drawn) [YJ1114]	2020 nM	significantly decreased CDK12/13 degradation and cell viability	–
CN1C(=O)CCC(N2C(=O)c3cccc(OCC(=O)N4CCN(c5ccc(N(C(=O)NCc6ccccc6)C6CCC(Nc7ncc8ccccc8n7)CC6)cc5)CC4)c3C2=O)C1=O (stereo not drawn) [YJ1078]	–	did not affect target protein levels	> 3000 nM
O=C1CCC(N2C(=O)c3ccc(-c4cccc(C(=O)N5CCN(c6ccc(N(C(=O)NCc7ccccc7)C7CCC(Nc8ncc9ccccc9n8)CC7)cc6)CC5)c4)cc3C2=O)C(=O)N1 (stereo not drawn) [YJ1130]	126 nM	significantly decreased CDK12/13 degradation and cell viability	–
O=C1CCC(N2Cc3ccc(OCC(=O)N4CCN(c5ccc(N(C(=O)NCc6ccccc6)C6CCC(Nc7ncc8ccccc8n7)CC6)cc5)CC4)cc3C2=O)C(=O)N1 (stereo not drawn) [YJ1094]	25.2 nM	retained the CDK12/13 degradation abilities	–
O=C1CCC(N2C(=O)c3ccc(OCC(=O)N4CCN(c5ccc(N(C(=O)NCc6ccccc6)C6CCC(Nc7ncc8ccccc8n7)CC6)cc5)CC4)cc3C2=O)C(=O)N1 (stereo not drawn) [YJ1090]	93.8 nM	retained the CDK12/13 degradation abilities	–
